According to patent US20220411421A1, “4-AMINO-IMIDAZOQUINOLINE COMPOUNDS AND USE THEREOF” (Prime Reach Trading Limited, priority 2019, published 2022):

Legend:
Type in all cases: cell-based
[1] = tested on: human PBMCs; experiment: Ex vivo cytokine profile: IL-12p70 induction from human PBMCs; conditions: human PBMCs stimulated 24 h, normalized to baseline; FIGS. 2A-C
Procedure: (§1) Three test compounds (Compound Nos. 2, 9, 10) were used to evaluate the effect on cytokine induction.
(§2) Cryopreserved human PBMCs from 4 normal adult volunteers were purchased from EPBMC® (IMMUNOSPOT®). The PBMCs were thawed at 37° C. for 10 minutes and centrifuged at 300×g at room temperature for 5 minutes. The pelleted PBMCs were transferred to RPMI-1640 medium containing 10% FBS, 1% PSA and incubated at 37° C. with 5% CO2.
(§3) The test compounds and reference compounds were respectively dissolved in DMSO and subsequently 25-fold diluted with PBS to make stock solutions at a concentration of 0.1 mM. The preincubated PBMCs were harvested and resuspended in a fresh RPMI-1640 medium containing 10% FBS and 1% PSA. Approximately 1×10^3 PBMCs were added to each well of 96-well plates and stimulated with 0, 20 or 1000 nM of test compounds for 24 h at 37° C. in a 5% CO2 humidified incubator. The culture supernatant was stocked at −20° C. for analysis of TLR7- and TLR8-mediated cytokine induction. PROCARTAPLEX™ Immunoassay (Invitrogen) was performed to quantify human IL-6, IL-12p70, IP-10 in the culture supernatant according to the manufacturer's instructions. Briefly, the culture supernatant samples were thawed on ice and transferred to a microtiter plate. Magnetic bead-coupled antibodies specific to the target cytokines were added to the samples for analyte capturing. The immobilized target cytokine was specifically detected by biotin-conjugated antibodies and then labelled with streptavidin-Phycoerythrin (PE). The PE-labelled magnetic beads were detected and identified by LUMINEX™ 200™ analyzer. Data acquisition, processing and analysis was conducted by using XPONENT™ 3.1 software. The target cytokines were normalized to their baseline cytokine levels and presented as relative cytokines.

[2] = molecular target: T1, hTLR8 (Homo sapiens, UniProt Q9NR97); experiment: hTLR8 agonistic activity, HEK-Blue hTLR8 SEAP reporter gene assay; conditions: for EC50: HEK-Blue hTLR8 cells, SEAP reporter, about 16 hours incubation, read-out: TLR8 EC50; for Ratio of TLR8 EC50 and TLR7 EC50: TLR8 EC50 / TLR7 EC50, HEK-Blue reporter cells
T1 construct: expressed in transfected cells; host or cells: HEK-Blue hTLR8 cells
T1 sequence (Q9NR97 27-1041): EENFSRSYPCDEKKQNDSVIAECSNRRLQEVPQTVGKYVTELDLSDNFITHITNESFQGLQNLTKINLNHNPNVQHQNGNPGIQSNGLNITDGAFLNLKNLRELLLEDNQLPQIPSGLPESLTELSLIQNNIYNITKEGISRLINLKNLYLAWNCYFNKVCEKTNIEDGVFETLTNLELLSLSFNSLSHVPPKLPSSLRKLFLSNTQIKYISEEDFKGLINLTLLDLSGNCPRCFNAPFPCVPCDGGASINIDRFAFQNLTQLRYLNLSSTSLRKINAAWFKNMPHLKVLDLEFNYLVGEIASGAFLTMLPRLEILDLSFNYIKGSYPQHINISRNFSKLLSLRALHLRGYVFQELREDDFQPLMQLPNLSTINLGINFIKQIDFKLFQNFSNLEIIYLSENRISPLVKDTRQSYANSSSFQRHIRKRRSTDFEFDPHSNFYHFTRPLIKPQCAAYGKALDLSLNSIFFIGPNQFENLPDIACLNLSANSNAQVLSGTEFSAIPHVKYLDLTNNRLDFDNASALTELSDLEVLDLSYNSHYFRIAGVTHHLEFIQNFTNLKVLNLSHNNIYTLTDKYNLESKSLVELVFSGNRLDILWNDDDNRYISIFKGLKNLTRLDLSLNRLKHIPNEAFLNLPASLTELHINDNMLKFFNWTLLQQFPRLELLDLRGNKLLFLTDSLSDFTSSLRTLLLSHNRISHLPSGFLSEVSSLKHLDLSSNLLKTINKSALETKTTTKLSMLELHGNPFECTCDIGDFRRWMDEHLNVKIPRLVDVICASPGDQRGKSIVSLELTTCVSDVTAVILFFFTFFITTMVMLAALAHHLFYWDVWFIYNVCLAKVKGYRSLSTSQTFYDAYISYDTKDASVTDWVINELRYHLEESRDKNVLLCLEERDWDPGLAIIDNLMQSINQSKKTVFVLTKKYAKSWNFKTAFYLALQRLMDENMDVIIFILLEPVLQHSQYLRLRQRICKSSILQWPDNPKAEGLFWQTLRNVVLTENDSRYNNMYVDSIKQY
Procedure: To analyze the hTLR8 agonistic activity, HEK-Blue hTLR8 cells transfected with SEAP reporter were seeded at 3×10^4 cell/well. […] The HEK-Blue hTLR8 cells served to measure the bioactivity of TLR8 through the SEAP upon NF-κB activation following TLR8 stimulation.
(§4) In the SEAP reporter gene assay as described above, water was used as a negative control. […] The dose-response curves were fit with four parameter logistic curves (SigmaPlot, version 9.0). The EC50-values of the test compounds and reference compounds were calculated.

[3] = tested on: human PBMCs; experiment: Ex vivo cytokine profile: IP-10 induction from human PBMCs; conditions: human PBMCs stimulated 24 h, normalized to baseline; FIGS. 3A-C
Procedure: as §1, §2, §3

[4] = molecular target: T2, hTLR7 (Homo sapiens, UniProt Q9NYK1); experiment: hTLR7 agonistic activity, HEK-Blue hTLR7 SEAP reporter gene assay; conditions: for EC50: HEK-Blue hTLR7 cells, SEAP reporter, about 16 hours incubation, read-out: TLR7 EC50
T2 construct: expressed in transfected cells; host or cells: HEK-Blue hTLR7 cells
T2 sequence (Q9NYK1 27-1049): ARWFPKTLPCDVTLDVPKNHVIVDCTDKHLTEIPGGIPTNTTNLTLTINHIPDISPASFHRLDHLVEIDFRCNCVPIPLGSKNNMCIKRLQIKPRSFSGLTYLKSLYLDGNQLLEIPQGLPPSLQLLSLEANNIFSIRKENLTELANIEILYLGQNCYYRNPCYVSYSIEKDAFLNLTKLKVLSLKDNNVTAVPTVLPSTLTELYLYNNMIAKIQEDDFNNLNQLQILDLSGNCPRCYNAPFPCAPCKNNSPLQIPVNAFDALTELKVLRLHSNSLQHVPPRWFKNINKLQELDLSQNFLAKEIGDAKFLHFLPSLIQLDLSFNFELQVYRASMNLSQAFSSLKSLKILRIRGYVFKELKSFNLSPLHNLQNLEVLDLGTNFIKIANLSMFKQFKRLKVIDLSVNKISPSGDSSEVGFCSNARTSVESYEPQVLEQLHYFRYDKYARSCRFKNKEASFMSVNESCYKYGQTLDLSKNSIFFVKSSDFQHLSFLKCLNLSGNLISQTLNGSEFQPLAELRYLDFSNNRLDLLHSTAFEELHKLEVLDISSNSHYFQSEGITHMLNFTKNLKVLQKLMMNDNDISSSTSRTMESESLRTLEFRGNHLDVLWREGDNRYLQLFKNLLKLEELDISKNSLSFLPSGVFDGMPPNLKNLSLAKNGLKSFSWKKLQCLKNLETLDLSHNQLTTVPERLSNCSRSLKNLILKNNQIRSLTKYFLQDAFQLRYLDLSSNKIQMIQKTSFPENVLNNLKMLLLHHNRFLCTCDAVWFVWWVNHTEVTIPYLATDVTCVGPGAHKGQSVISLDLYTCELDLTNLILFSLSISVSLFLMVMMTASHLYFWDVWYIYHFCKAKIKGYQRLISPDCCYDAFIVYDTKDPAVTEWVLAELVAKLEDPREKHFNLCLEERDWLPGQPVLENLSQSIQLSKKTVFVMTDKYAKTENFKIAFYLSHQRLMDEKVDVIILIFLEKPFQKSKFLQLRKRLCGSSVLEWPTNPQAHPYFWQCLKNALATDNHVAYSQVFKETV
Procedure: To analyze the hTLR7 agonistic activity, HEK-Blue hTLR7 cells transfected with secreted embryonic alkaline phosphatase (SEAP) reporter were seeded at 3×10^4 cell/well. […] The SEAP reporter is designed specifically for measuring secreted placental AP (alkaline phosphatase) in conditioned cell culture medium from transfected cells. The HEK-Blue hTLR7 cells served to measure the bioactivity of TLR7 through SEAP upon NF-κB activation following TLR7 stimulation.
as §4

[5] = tested on: human PBMCs; experiment: Ex vivo cytokine profile: IL-6 induction from human PBMCs; conditions: human PBMCs stimulated 24 h, normalized to baseline; FIGS. 1A-C
Procedure: Cryopreserved human PBMCs from 4 normal adult volunteers were purchased from EPBMC® (IMMUNOSPOT®). The PBMCs were thawed at 37° C. for 10 minutes and centrifuged at 300×g at room temperature for 5 minutes.
as §3, with “The preincubated PBMCs were harvested and resuspended in a fresh RPMI-1640 medium containing 10% FBS and 1% PSA.” left out

SMILES | relative IL-12p70 induction [1] | EC50 [2] [µM] | Ratio of TLR8 EC50 and TLR7 EC50 [2] | relative IP-10 induction [3] | EC50 [4] [µM] | relative IL-6 induction [5] | TLR7 and TLR8 dual agonistic activity (in words) ([4]; HEK-Blue hTLR7 and hTLR8 reporter cells, summary of Table 1)
CC(C)(O)Cn1c(CCCC(F)(F)F)nc2c(N)nc3ccccc3c21 [Compound 9, 1-(4-amino-2-(4,4,4-trifluorobutyl)-1H-imidazo[4,5-c]quinolin-1-yl)-2-methylpropan-2-ol] | high IL-12p70 induction activity | 0.965 ± 0.0147 | 7.49 | high IP-10 induction activity | 0.129 ± 0.0109 | low IL-6 induction activity | 
CC(C)(O)Cn1c(CCCCC(F)(F)F)nc2c(N)nc3ccccc3c21 [Compound 10, 1-(4-amino-2-(5,5,5-trifluoropentyl)-1H-imidazo[4,5-c]quinolin-1-yl)-2-methylpropan-2-ol] | high IL-12p70 induction activity | 4.746 ± 0.0205 | 8.74 | high IP-10 induction activity | 0.543 ± 0.0294 | low IL-6 induction activity | 
CCCc1nc2c(N)nc3ccccc3c2n1CC(C)(C)O [Compound 1, 1-(4-amino-2-propyl-1H-imidazo[4,5-c]quinolin-1-yl)-2-methylpropan-2-ol] |  | 5.299 ± 0.0144 | 22.36 |  | 0.237 ± 0.0074 |  | 
CCCN(CCC)C(=O)C1=Cc2ccc(-c3ccc(C(=O)N4CCCC4)cc3)cc2N=C(N)C1 [Ref. 3, VTX2337, reference compound] |  |  |  |  |  | low IL-6 induction activity | 
CCCCCc1nc2c(N)nc3ccccc3c2n1CC(C)(C)O [Compound 2, 1-(4-amino-2-pentyl-1H-imidazo[4,5-c]quinolin-1-yl)-2-methylpropan-2-ol] | high IL-12p70 induction activity | 0.267 ± 0.0135 | 3.98 | high IP-10 induction activity | 0.0671 ± 0.0083 | low IL-6 induction activity | the most potent TLR7/8 dual agonist
